In brackets after ≈: the same amount, converted by molar mass. Like-named read-outs stand apart in the source and are kept apart here.
Tests used:
Format in all cases: cell-based
Salmonella spp. = experiment: MIC by agar dilution (NCCLS M7-A4), 288 enteropathogenic isolates, gemifloxacin and 15 other antimicrobials
E. coli = experiment: microbe, parasite or virus in culture; details: Escherichia coli
Proteus vulgaris = experiment: MIC by NCCLS broth microdilution, 1100 Japanese clinical isolates 1997-1998
Moraxella catarrhalis = experiment: MIC by agar dilution (NCCLS), 411 isolates Buenos Aires 1998-99; details: Moraxella catarrhalis (n = 59)
Aeromonas spp. = experiment: MIC by agar dilution (NCCLS M7-A4), 288 enteropathogenic isolates, gemifloxacin and 15 other antimicrobials; details: Aeromonas spp. N= 16
Streptococcus pneumoniae [1] = experiment: MIC by two-fold serial agar dilution, Sensitivity Disk agar-N (Kitasato isolates); details: Streptococcus pneumoniae; for MIC: read-out: MIC Range; for MIC50: read-out: MIC50
Klebsiella pneumoniae [2] = experiment: MIC by agar dilution (NCCLS), 322 nosocomial Gram negative isolates, Athens 1998; details: n = 56 isolates
Yersinia enterocolitica = experiment: MIC by agar dilution (NCCLS M7-A4), 288 enteropathogenic isolates, gemifloxacin and 15 other antimicrobials; details: Yersinia enterocolitica N= 22
Klebsiella oxytoca = experiment: MIC by NCCLS broth microdilution, 1100 Japanese clinical isolates 1997-1998; details: Klebsiella oxytoca (n=40)
Enterobacter aerogenes = experiment: as above; details: Enterobacter aerogenes (n=35)
Enterococcus faecalis = experiment: as above; details: for MIC50 / MIC90: Enterococcus faecalis; for MIC90: read-out: MIC90
Haemophilus influenzae = experiment: MIC by two-fold serial agar dilution, Sensitivity Disk agar-N (Kitasato isolates); details: Haemophilus influenzae (24)
Klebsiella pneumoniae [3] = experiment: MIC by NCCLS broth microdilution, 1100 Japanese clinical isolates 1997-1998; details: Klebsiella pneumoniae (n=35)
Shigella spp. = experiment: as above; details: Shigella spp. (n=34)
[4] = system: Streptococcus pneumoniae and Haemophilus influenzae; experiment: MIC by broth microdilution (NCCLS), all isolates pooled
Streptococcus pneumoniae [5] = experiment: MIC by agar dilution (NCCLS), 411 isolates Buenos Aires 1998-99; details: for MIC90 / MIC: Streptococcus pneumoniae; for MIC: Ciprofloxacin-resistant S. pneumoniae, read-out: MIC
Hafnia alvei = experiment: MIC by agar dilution (NCCLS M7-A4), 288 enteropathogenic isolates, gemifloxacin and 15 other antimicrobials; details: Hafnia alvei N= 32
Citrobacter freundii = experiment: MIC by NCCLS broth microdilution, 1100 Japanese clinical isolates 1997-1998
Proteus mirabilis [6] = experiment: MIC by agar dilution (NCCLS), 322 nosocomial Gram negative isolates, Athens 1998; details: Proteus mirabilis; n = 57 isolates
Proteus mirabilis [7] = experiment: MIC by NCCLS broth microdilution, 1100 Japanese clinical isolates 1997-1998; details: Proteus mirabilis (n=30)
Escherichia coli = experiment: MIC by agar dilution (NCCLS), 322 nosocomial Gram negative isolates, Athens 1998; details: n = 57 isolates
Morganella morganii = experiment: MIC by NCCLS broth microdilution, 1100 Japanese clinical isolates 1997-1998; details: Morganella morganii (n=40)
Providencia rettgeri = experiment: as above; details: Providencia rettgeri (n=12)
Enterococcus gallinarum = experiment: as above; details: Enterococcus gallinarum, GALLINARUM
[8] = 24 h, read-out: MIC (mg/L) Range
[9] = Enterococcus faecalis ciprofloxacin resistant (n=15)
[10] = Enterococcus faecalis ciprofloxacin susceptible (n=24)

## N[C@@H]1[C@H]2CN(c3nc4c(cc3F)c(=O)c(C(=O)O)cn4-c3ccc(F)cc3F)C[C@@H]12 [Trovafloxacin, trovafloxacin]
Salmonella spp.; S. hadar(2), isolates with MICs for ciprofloxacin ≥[…], read-out: MIC
  MIC: 0.5 mg/L (≈ 1.2 µM)
Salmonella spp.; S. newport(1), isolate with MIC for ciprofloxacin ≥[…], read-out: MIC
  MIC: 0.5 mg/L (≈ 1.2 µM)
Salmonella spp.; S. virchow(2), isolates with MICs for ciprofloxacin ≥[…], read-out: MIC
  MIC: 0.25 mg/L (≈ 0.6 µM)
Salmonella spp.; Salmonella spp. N= 106
  MIC (mg/L) Range: ≤0.015 to 1 mg/L
Salmonella spp.; Salmonella, S. tshiongwe(1), isolate with MIC for ciprofloxacin ≥[…], read-out: MIC
  MIC: 1 mg/L (≈ 2.4 µM)
Salmonella spp.; Salmonella, read-out: MIC (mg/L) 50%, Salmonella spp. N= 106
  MIC: 0.06 mg/L (≈ 0.144 µM)
Salmonella spp.; Salmonella, read-out: MIC (mg/L) 90%, Salmonella spp. N= 106
  MIC: 0.25 mg/L (≈ 0.6 µM)
E. coli; E. coli (13 strains), quinolone-resistant, read-out: MIC50
  MIC50: 0.063 mg/L (≈ 0.151 µM)
E. coli; E. coli (13 strains), quinolone-resistant, read-out: MIC90
  MIC90: 0.5 mg/L (≈ 1.2 µM)
E. coli; E. coli KU1029, mutant type SP (spontaneous mutant in the DNA gyrase)
  MIC: 0.063 mg/L (≈ 0.151 µM)
E. coli; E. coli KU1030, mutant type SP
  MIC: 0.063 mg/L (≈ 0.151 µM)
E. coli; E. coli KU1031, mutant type SP
  MIC: 0.063 mg/L (≈ 0.151 µM)
E. coli; E. coli KU1032, mutant type SP
  MIC: 0.25 mg/L (≈ 0.6 µM)
E. coli; E. coli KU1033, mutant type SP
  MIC: 0.031 mg/L (≈ 0.0745 µM)
E. coli; E. coli KU1034, mutant type GA (DNA gyrase A)
  MIC: 0.5 mg/L (≈ 1.2 µM)
E. coli; E. coli KU1035, mutant type GA (DNA gyrase A)
  MIC: 0.5 mg/L (≈ 1.2 µM)
E. coli; E. coli KU1036, mutant type GB (DNA gyrase B)
  MIC: 0.063 mg/L (≈ 0.151 µM)
E. coli; E. coli KU1038, mutant type SP
  MIC: 0.063 mg/L (≈ 0.151 µM)
E. coli; E. coli KU1039, mutant type SP
  MIC: 0.25 mg/L (≈ 0.6 µM)
E. coli; E. coli KU1040, mutant type SP
  MIC: ≤ 0.008 mg/L
E. coli; E. coli KU1041, mutant type SP
  MIC: 0.5 mg/L (≈ 1.2 µM)
E. coli; E. coli KU1042, mutant type SP
  MIC: 0.125 mg/L (≈ 0.3 µM)
Proteus vulgaris; Proteus vulgaris
  MIC50: 0.125 mg/L (≈ 0.3 µM)
Proteus vulgaris; Proteus vulgaris (n=25)
  MIC Range: 0.063 to 2 mg/L
Proteus vulgaris; Proteus vulgaris (n=25), read-out: MIC90
  MIC90: 1 mg/L (≈ 2.4 µM)
Moraxella catarrhalis
  MIC Range: ≤0.004 to 0.03 mg/L
Moraxella catarrhalis; read-out: MIC90
  MIC90: 0.016 mg/L (≈ 0.0384 µM)
Aeromonas spp.
  MIC (mg/L) Range: ≤0.015 to 0.25 mg/L
Aeromonas spp.; read-out: MIC (mg/L) 50%
  MIC: ≤ 0.015 mg/L
Aeromonas spp.; read-out: MIC (mg/L) 90%
  MIC: 0.03 mg/L (≈ 0.0721 µM)
Streptococcus pneumoniae [1]
  MIC90: 0.125 mg/L (≈ 0.3 µM)
Streptococcus pneumoniae [1]; 18 h, Ciprofloxacin-resistant (21), ciprofloxacin MIC ≥8 µg/ml, read-out: MIC90
  MIC90: 4 mg/L (≈ 9.61 µM)
Streptococcus pneumoniae [1]; 18 h, Ciprofloxacin-susceptible (94)
  MIC: 0.031 to 0.25 mg/L (≈ 0.0745 to 0.6 µM)
Streptococcus pneumoniae [1]; 18 h, Erythromycin-resistant (37)
  MIC: 0.063 to 2 mg/L (≈ 0.151 to 4.8 µM)
Streptococcus pneumoniae [1]; 18 h, Minocycline-resistant (37)
  MIC: 0.063 to 2 mg/L (≈ 0.151 to 4.8 µM)
Streptococcus pneumoniae [1]; 18 h, Penicillin-resistant (19)
  MIC: 0.031 to 0.25 mg/L (≈ 0.0745 to 0.6 µM)
Streptococcus pneumoniae [1]; 18 h
  MIC: 0.125 to 4 mg/L (≈ 0.3 to 9.61 µM)
Streptococcus pneumoniae [1]; Ciprofloxacin-resistant (21)
  MIC50: 2 mg/L (≈ 4.8 µM)
Streptococcus pneumoniae [1]; Ciprofloxacin-susceptible (94)
  MIC50: 0.063 mg/L (≈ 0.151 µM)
Streptococcus pneumoniae [1]; Erythromycin-resistant (37)
  MIC50: 0.063 mg/L (≈ 0.151 µM)
Streptococcus pneumoniae [1]; Erythromycin-resistant (37), read-out: MIC90
  MIC90: 0.25 mg/L (≈ 0.6 µM)
Streptococcus pneumoniae [1]; Minocycline-resistant (37)
  MIC50: 0.063 mg/L (≈ 0.151 µM)
Streptococcus pneumoniae [1]; Minocycline-resistant (37), read-out: MIC90
  MIC90: 0.25 mg/L (≈ 0.6 µM)
Streptococcus pneumoniae [1]; Penicillin-resistant (19)
  MIC50: 0.063 mg/L (≈ 0.151 µM)
Streptococcus pneumoniae [1]; Penicillin-resistant (19), read-out: MIC90
  MIC90: 0.25 mg/L (≈ 0.6 µM)
Klebsiella pneumoniae [2]; Klebsiella pneumoniae
  MIC50: 0.125 mg/L (≈ 0.3 µM)
  MIC90: 1 mg/L (≈ 2.4 µM)
Klebsiella pneumoniae [2]
  MIC Range: ≤0.03 to 16 mg/L
Yersinia enterocolitica; [8]
  MIC: 0.015 to 0.25 mg/L (≈ 0.036 to 0.6 µM)
Yersinia enterocolitica; read-out: MIC (mg/L) 50%
  MIC: 0.06 mg/L (≈ 0.144 µM)
Yersinia enterocolitica; read-out: MIC (mg/L) 90%
  MIC: 0.06 mg/L (≈ 0.144 µM)
Klebsiella oxytoca
  MIC50: 0.032 mg/L (≈ 0.0769 µM)
  MIC90: 8 mg/L (≈ 19.2 µM)
  MIC Range: ≤0.008 to 32 mg/L
Enterobacter aerogenes
  MIC Range: ≤0.008 to 0.125 mg/L
Enterobacter aerogenes; Klebsiella aerogenes
  MIC50: 0.032 mg/L (≈ 0.0769 µM)
  MIC90: 0.063 mg/L (≈ 0.151 µM)
Enterococcus faecalis; [9]
  MIC Range: 0.25 to 16 mg/L
  MIC50: 4 mg/L (≈ 9.61 µM)
  MIC90: 16 mg/L (≈ 38.4 µM)
Enterococcus faecalis; [10]
  MIC Range: 0.25 to 0.5 mg/L
  MIC50: 0.25 mg/L (≈ 0.6 µM)
  MIC90: 0.25 mg/L (≈ 0.6 µM)
Haemophilus influenzae
  MIC50: 0.016 mg/L (≈ 0.0384 µM)
  MIC90: 0.031 mg/L (≈ 0.0745 µM)
  MIC Range: ≤0.004 to 0.031 mg/L
Klebsiella pneumoniae [3]
  MIC50: 0.032 mg/L (≈ 0.0769 µM)
  MIC Range: ≤0.008 to 1 mg/L
Klebsiella pneumoniae [3]; read-out: MIC90
  MIC90: 0.063 mg/L (≈ 0.151 µM)
Shigella spp.
  MIC50: ≤ 0.008 mg/L
  MIC90: 0.032 mg/L (≈ 0.0769 µM)
  MIC Range: ≤0.008 to 0.032 mg/L
[4]; all (380) isolates tested (235 S. pneumoniae, 145 H. influenzae)
  MIC90: 0.12 mg/L (≈ 0.288 µM)
[4]; all isolates tested (602)
  MIC90: 0.25 mg/L (≈ 0.6 µM)
Streptococcus pneumoniae [5]
  MIC90: 0.125 mg/L (≈ 0.3 µM)
Streptococcus pneumoniae [5]; Streptococcus pneumoniae (n = 90)
  MIC Range: 0.016 to 1 mg/L
Streptococcus pneumoniae [5]; Strain 1
  MIC: 0.25 mg/L (≈ 0.6 µM)
Streptococcus pneumoniae [5]; Strain 2
  MIC: 0.025 mg/L (≈ 0.06 µM)
Streptococcus pneumoniae [5]; Strain 3
  MIC: 1 mg/L (≈ 2.4 µM)
Streptococcus pneumoniae [5]; Strain 4
  MIC: 1 mg/L (≈ 2.4 µM)
Streptococcus pneumoniae [5]; S. pneumoniae, Penicillin intermediate (n = 17), read-out: MIC90
  MIC90: 0.25 mg/L (≈ 0.6 µM)
Streptococcus pneumoniae [5]; S. pneumoniae, Penicillin susceptible (n = 69), read-out: MIC90
  MIC90: 0.25 mg/L (≈ 0.6 µM)
Streptococcus pneumoniae [5]; Streptococcus pneumoniae (n = 90), read-out: MIC90
  MIC90: 0.25 mg/L (≈ 0.6 µM)
Hafnia alvei; [8]
  MIC: 0.03 to 0.12 mg/L (≈ 0.0721 to 0.288 µM)
Hafnia alvei; read-out: MIC (mg/L) 50%
  MIC: 0.06 mg/L (≈ 0.144 µM)
Hafnia alvei; read-out: MIC (mg/L) 90%
  MIC: 0.06 mg/L (≈ 0.144 µM)
Citrobacter freundii; Citrobacter freundii
  MIC50: 0.125 mg/L (≈ 0.3 µM)
Citrobacter freundii; Citrobacter freundii (n=39)
  MIC90: 2 mg/L (≈ 4.8 µM)
  MIC Range: ≤0.008 to 4 mg/L
Proteus mirabilis [6]
  MIC50: 0.25 mg/L (≈ 0.6 µM)
  MIC90: 16 mg/L (≈ 38.4 µM)
Proteus mirabilis [7]
  MIC Range: 0.063 to 16 mg/L
Proteus mirabilis [7]; read-out: MIC50
  MIC50: 0.25 mg/L (≈ 0.6 µM)
Proteus mirabilis [7]; read-out: MIC90
  MIC90: 0.5 mg/L (≈ 1.2 µM)
Escherichia coli; Escherichia coli
  MIC50: 0.06 mg/L (≈ 0.144 µM)
  MIC90: 0.25 mg/L (≈ 0.6 µM)
Escherichia coli
  MIC Range: ≤0.03 to 64 mg/L
Morganella morganii
  MIC Range: 0.063 to 32 mg/L
Morganella morganii; read-out: MIC50
  MIC50: 0.25 mg/L (≈ 0.6 µM)
Morganella morganii; read-out: MIC90
  MIC90: 1 mg/L (≈ 2.4 µM)
Providencia rettgeri
  MIC90: 8 mg/L (≈ 19.2 µM)
  MIC Range: 0.125 to 8 mg/L
Providencia rettgeri; read-out: MIC50
  MIC50: 0.25 mg/L (≈ 0.6 µM)
Enterococcus gallinarum
  MIC: 0.125 mg/L (≈ 0.3 µM)
Enterococcus gallinarum; Enterococcus gallinarum (vanC1), strain TMS2, read-out: MIC
  MIC: 0.25 mg/L (≈ 0.6 µM)
Enterococcus gallinarum; Enterococcus gallinarum (vanC1), strain TMS3, read-out: MIC
  MIC: 0.25 mg/L (≈ 0.6 µM)
Enterococcus gallinarum; Enterococcus gallinarum (vanC1), strain TMS4, read-out: MIC
  MIC: 0.063 mg/L (≈ 0.151 µM)

From patent EP1561465A2, “Methods of use of fluoroquinolone compounds against bacteria” (LG Life Sciences, Ltd., priority 1999, dated 2001)
